Where “and” joins values, the source holds several entries; their conditions need not be identical. Equal values may be shown once.
Columns and labels:
[1] = biological target: T1, HCV genotype 1b (BK) NS3 modified enzyme with a R155K mutation (Hepatitis C virus genotype 1b, UniProt P26663, R1181K); assay: HCV NS3 protease time-resolved fluorescence (TRF) assay, genotype 1b R155K; assay type: biochemical; settings: Ki 1b R155K
T1 construct: HCV genotype 1b (BK) NS3 modified enzyme
Procedure, shortened: (§1)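 Time-resolved fluorescence, ex 340/em 615 nm, 400 μs delay; IC50 by four-parameter fit. Enzyme preincubated with compound 10 min, then TRF substrate 25 nM final added and reaction run 6 h at RT. Buffer HEPES pH 7.5 with NaCl, glycerol, Triton X-100, DTT, PEG 8000.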

[2] = biological target: HCV NS3 protease genotype 3a (3A-1) (Hepatitis C virus genotype 3a, UniProt Q81258); assay: HCV NS3 protease time-resolved fluorescence (TRF) assay, genotype 3a; assay type: biochemical; settings: Ki 3a
Procedure, shortened: as §1

[3] = genotype 1b (BK) NS3 R155K, single value

Structure (SMILES) | Ki [1, 3] | Ki [2] | Ki ([1]; first of two values printed in the cell (not explained)) [pM] | Ki ([1]; second of two values printed in the cell (not explained)) [pM]
C=C[C@@H]1C[C@]1(NC(=O)[C@@H]1C[C@@H]2CN1C(=O)[C@H](C(C)(C)C)NC(=O)O[C@@H]1C[C@H]1CCCCCc1c(nc3ccccc3c1O)O2)C(=O)NS(=O)(=O)C1(C)CC1 [Example 120, (1aR,5S,8S,10R,22aR)-5-tert-butyl-N-[(1R,2S)-2-ethenyl-1-{[(1-methylcyclopropyl)sulfonyl]carbamoyl}cyclopropyl]-17-hydroxy-3,6-dioxo-1,1a,3,4,5,6,9,10,18, 19,20,212,22,22a-tetradeca hydro-8H-7,10-methanocyclopropa [18,19][1,10,3,6]dioxadiazacyclo-nonadecino [11,12-b]quinoline-8-carboxamide] | 62 pM | 1100 pM | – | –
C=C[C@@H]1C[C@]1(NC(=O)[C@@H]1C[C@@H]2CN1C(=O)[C@H](C(C)(C)C)NC(=O)O[C@@H]1CCC[C@H]1CCCCCc1c(nc3ccccc3c1OCCN(C)C)O2)C(=O)NS(=O)(=O)C1(CCN2CCOCC2)CC1 [Example 103, (3aR,7S,10S,12R,24aR)-7-tert-butyl-19-[2-(dimethylamino)ethoxy]-N-{(1R,2S)-2-ethenyl-1-[({1-[2-(morpholin-4-yl)ethyl]cyclopropyl}sulfonyl)carbamoyl]cyclopropyl}-5,8-dioxo-1,2,3,3a,5,6,7,8,11,12,20,21, 22,23,24,24a-hexadeca hydro-10H-9,12-methanocyclo-penta[18,19][1,10,3,6] dioxadiazacyclononadecino [11,12-b]quinoline-10-carboxamide] | 770 pM and 130 pM | 8500 pM and 1100 pM | – | –
C=C[C@@H]1C[C@]1(NC(=O)[C@@H]1C[C@@H]2CN1C(=O)[C@H](C(C)(C)C)NC(=O)O[C@@H]1C[C@H]1CCCCCc1c(nc3ccccc3c1OCCCN(CCOC)CCOC)O2)C(=O)NS(=O)(=O)C1(C)CC1 [Example 186, (1aR,5S,8S,10R,22aR)-17-{3-[bis(2-methoxyethyl)amino]propoxy}-5-tert-butyl-N-[(1R,2S)-2-ethenyl-1-{[(1-methylcyclopropyl)sulfonyl]carbamoyl}cyclopropyl]-3,6-dioxo-1,1a,3,4,5,6,9,10, 18,19,20,21,22,22a-tetradecahydro-8H-7,10-methanocyclopropa[18,19][1,10,3,6] dioxadiazacyclononadecino[11,12-b] quinoline-8-carboxamide] | 78 pM | 1900 pM | – | –
C=C[C@@H]1C[C@]1(NC(=O)[C@@H]1C[C@@H]2CN1C(=O)[C@H](C1CCCC1)NC(=O)O[C@@H]1CCC[C@H]1CC/C=C/Cc1c(nc3ccccc3c1OCCCN)O2)C(=O)NS(=O)(=O)C1CC1 [Example 94, (3aR,7S,10S,12R,21E,24aS)-19-(3-aminopropoxy)-7-cyclopentyl-N-{(1R,2S)-1-[(cyclopropylsulfonyl)carbamoyl]-2-ethenylcyclopropyl}-5,8-dioxo-1,2,3,3a,5,6,7,8,11,12,20,23,24,24a-tetradecahydro-10H-9,12-methanocyclopenta[18,19][1,10,3,6]dioxadiazacyclononadecino[11,12-b]quinoline-10-carboxamide] | 93 pM | 590 pM | – | –
C=C[C@@H]1C[C@]1(NC(=O)[C@@H]1C[C@@H]2CN1C(=O)[C@H](C(C)(C)C)NC(=O)O[C@@H]1C[C@H]1CCCCCc1c(nc3ccccc3c1OCCc1cccnc1)O2)C(=O)NS(=O)(=O)C1(C)CC1 [Example 218, (1aR,5S,8S,10R,22aR)-5-tert-butyl-N-[(1R,2S)-2-ethenyl-1-{[(1-methylcyclopropyl)sulfonyl]carbamoyl}cyclopropyl]-3,6-dioxo-17-[2-(pyridin-3-yl)ethoxy]-1,1a,3,4,5,6,9,10,18,19,20,21,22,22a-tetradecahydro-8H-7,10-methanocyclopropa[18,19][1,10,3,6] dioxadiazacyclononadecino[11,12-b]quinoline-8-carboxamide] | 35 pM | 2600 pM | – | –
C=CC1C[C@]1(NC(=O)[C@@H]1C[C@@H]2CN1C(=O)[C@H](C1CCCC1)NC(=O)O[C@@H]1CCC[C@H]1CC/C=C/Cc1c(nc3ccccc3c1OCCCN1CCC1)O2)C(=O)NS(=O)(=O)C1(C)CC1 (stereo partly drawn) [Example 85, (3aR,7S,10S,12R,21E,24aS)-19-[3-(azetidin-1-yl)propoxy]-7-cyclopentyl-N-[(1R,2S)-2-ethenyl-1-{[(1-methylcyclopropyl)sulfonyl]carbamoyl}cyclopropyl]-5,8-dioxo-1,2,3,3a,5,6,7,8,11,12,20,23,24,24a-tetra deca hydro-10H-9,12-methanocyclopenta [18,19][1,10,3,6]dioxa-diazacyclononadecino[11,12-b] quinoline-10-carboxamide] | 110 pM | 560 pM | – | –
C=C[C@@H]1C[C@]1(NC(=O)[C@@H]1C[C@@H]2CN1C(=O)[C@H](C(C)(C)C)NC(=O)O[C@@H]1CCC[C@H]1CCCCCc1c(nc3ccccc3c1OCCN1CCOCC1)O2)C(=O)NS(=O)(=O)N(C)C [Example 106, (3aR,7S,10S,12R,24aR)-7-tert-butyl-N-{(1R,2S)-1-[(dimethylsulfamoyl)carbamoyl]-2-ethenylcyclopropyl}-19-[2-(morpholin-4-yl)ethoxy]-5,8-dioxo-1,2,3,3a,5,6,7,8,11,12,20,21,22,23,24,24a-hexadecahydro-10H-9,12-methanocyclopenta[18,19][1,10,3,6]dioxadiazacyclononadecino[11,12-b]quinoline-10-carboxamide] | 780 pM | 17000 pM | – | –
C=C[C@@H]1C[C@]1(NC(=O)[C@@H]1C[C@@H]2CN1C(=O)[C@H](C(C)(C)C)NC(=O)O[C@@H]1C[C@H]1CCCCCc1c(nc3ccccc3c1OC1CC3CCC(C1)N3CCOC)O2)C(=O)NS(=O)(=O)C1(C)CC1 (single isomer, unassigned) [Example 280] | – | 4650 pM | 24 | 280
C=C[C@@H]1C[C@]1(NC(=O)[C@@H]1C[C@@H]2CN1C(=O)[C@H](C(C)(C)C)NC(=O)O[C@@H]1C[C@H]1CCCCCc1c(nc3ccccc3c1OCCCN1CCC(OC)CC1)O2)C(=O)NS(=O)(=O)C1(C)CC1 [Example 156, (1aR,5S,8S,10R,22aR)-5-tert-butyl-N-[(1R,2S)-2-ethenyl-1-{[(1-methylcyclopropyl)sulfonyl]carbamoyl}cyclopropyl]-17-[3-(4-methoxypiperidin-1-yl)propoxy]-3,6-dioxo-1,1a,3,4,5,6,9, 10,18,19,20,21,22,22a-tetradecahydro-8H-7,10-methanocyclopropa[18,19] [1,10,3,6]dioxadiaza cyclononadecino[11,12-b]quinoline-8-carboxamide] | 79 pM | 840 pM | – | –
C=C[C@@H]1C[C@]1(NC(=O)[C@@H]1C[C@@H]2CN1C(=O)[C@H](C1CCCC1)NC(=O)O[C@@H]1CCC[C@H]1CC/C=C/Cc1c(nc3ccccc3c1OCCCOC(=O)CN(C)C)O2)C(=O)NS(=O)(=O)C1CC1 [Example 74] | 100 pM | 1300 pM | – | –
C=C[C@@H]1C[C@]1(NC(=O)[C@@H]1C[C@@H]2CN1C(=O)[C@H](C(C)(C)C)NC(=O)O[C@@H]1C[C@H]1CCCCCc1c(nc3ccccc3c1OCCCNCCN1CCCC1=O)O2)C(=O)NS(=O)(=O)C1(C)CC1 [Example 197, (1aR,5S,8S,10R,22aR)-5-tert-butyl-N-[(1R,2S)-2-ethenyl-1-{[(1-methylcyclopropyl)sulfonyl]carbamoyl}cyclopropyl]-3,6-dioxo-17-(3-{[2-(2-oxopyrrolidin-1-yl)ethyl]amino}propoxy)-1,1a,3,4,5,7,9,10, 18,19,20,21,22,22a-tetra decahydro-8H-7,10-methanocyclopropa[18,19][1,10,3,6] dioxdiazacyclononadecino[11,12-b] quinoline-8-carboxamide] | 27 pM | 310 pM | – | –
C=C[C@@H]1C[C@]1(NC(=O)[C@@H]1C[C@@H]2CN1C(=O)[C@H](C(C)(C)C)NC(=O)O[C@@H]1CCC[C@H]1CC/C=C/Cc1c(nc3ccccc3c1OCCCOCCOC)O2)C(=O)NS(=O)(=O)C1(C)CC1 [Example 56, (3aR,7S,10S,12R,21E,24aS)-7-tert-butyl-N-[(1R,2S)-2-ethenyl-1-{[(1-methylcyclopropyl)sulfonyl]carbamoyl}cyclopropyl]-19-[3-(2-methoxyethoxy)propoxy]-5,8-dioxo-1,2,3,3a,5,6,7,8,11,12,20,23,24,24a-tetradecahydro-10H-9,12-methanocyclopenta[18,19][1,10,3,6]dioxadiazacyclononadecino[11,12-b] quinoline-10-carboxamide] | 90 pM | 950 pM | – | –
C=C[C@@H]1C[C@]1(NC(=O)[C@@H]1C[C@@H]2CN1C(=O)[C@H](C1CCCC1)NC(=O)O[C@@]1(C)C[C@@H]1CC/C=C/Cc1c(nc3ccccc3c1O)O2)C(=O)NS(=O)(=O)C1CC1 [Example 20, (1aS,5S,8S,10R,19E,22aS)-5-cyclopentyl-N-{(1R,2S)-1-[(cyclopropylsulfonyl)carbamoyl]-2-ethenylcyclopropyl}-17-hydroxy-1a-methyl-3,6-dioxo-1,1a,3,4,5,6,9,10,18,21,22,22a-dodecahydro-8H-7,10-methanocyclopropa[18,19][1,10,3,6]dioxadiazacyclononadecino[11,12-b]quinoline-8-carboxamide] | 550 pM | 22000 pM | – | –
C=C[C@@H]1C[C@]1(NC(=O)[C@@H]1C[C@@H]2CN1C(=O)[C@H](C(C)(C)C)NC(=O)O[C@@H]1C[C@H]1CCCCCc1c(nc3cc(C)ccc3c1OCCCN1CCOCC1)O2)C(=O)NS(=O)(=O)C1(C)CC1 [Example 147, (1aR,S,8S,10R,22aR)-5-tert-butyl-N-[(1R,2S)-2-ethenyl-1-{[(1-methylcyclopropyl)sulfonyl]carbamoyl}cyclopropyl]-14-methyl-17-[3-(morpholin-4-yl)propoxy]-3,6-dioxo-1,1a,3,4,5,6,9, 10,18,19,20,21,22,22a-tetradecahydro-8H-7,10-methanocyclopropa[18,19] [1,10,3,6]dioxadiaza cyclononadecino[11,12-b] quinoline-8-carboxamide] | 260 pM | 2200 pM | – | –

Source: patent US9328138B2 (priority 2011, dated 2016)
